As usually defined, the IC50 is the concentration that gives 50% inhibition.

Drawing on patent US20030119862A1, “Pharmaceutical combination” (priority 2001, published 2003), this text covers IC50 for four compounds.

Read-outs that look alike come from different tables or passages of the source.

The test system of this assay is isolated human neutrophils. As to the kind of experiment: Inhibition of fMLP-induced elastase release from isolated human neutrophils. The format is cell-based. The conditions noted are these: read-out: Inhibition of elastase release (IC50). On the procedure: Test data—Inhibition of Elastase Release from Isolated Human Neutrophils
The dextran/blood was mixed gently by inversion and left to stand at room temperature for 45 minutes to allow erythrocyte sedimentation. Aliquots of 16 ml from the leukocyte-rich supernatant were overlaid on 10 ml Ficoll-Hypaque cushions in 50 ml polypropylene centrifuge tubes and the tubes centrifuged at 400 g for 35 mins at 21° C. The plasma, mononuclear cell layer and Ficoll were removed leaving the granulocyte-rich pellet. The pellets were initially re-suspended in 10 ml ice-cold distilled water for 45 seconds to lyse contaminating red blood cells, followed by the addition of 10 ml of ice-cold double concentrated phosphate buffered saline (PBS) solution to each tube to restore osmolarity. The suspensions were re-centrifuged at 200 g for 10 min at 4° C. to generate neutrophil pellets. The supernatants were removed and the pellets gently resuspended in a total volume of 10 ml ice-cold HBSS using a Pasteur pipette. A differential white cell count was performed on the resulting neutrophil suspension using a Beckman Coulter Ac. T5 haematology analyser and the cells stored on ice until assay. Immediately prior to assay, aliquots of the neutrophil suspension were removed and diluted to a count of 4×10^6 neutrophils/ml ice-cold HBSS containing 2U/ml adenosine deaminase.
Inhibition of fMLP induced elastase release was performed using a 160 μl assay volume in 96-well polystyrene microtiter plates. Elastase release was assayed by measuring the rate of cleavage of the synthetic substrate MeOSuc-Ala-Ala-Pro-Val-pNA. […] Assay plates were incubated at 37° C. for 10 minutes before addition of 8 μl of 2 μM fMLP (in HBSS) and measurement of rate of substrate cleavage was measured at λ=405 nm for 3 minutes at 37° C. Basal elastase, release was determined by the addition of 8 μl HBSS in place of fMLP. […] In the case of the combination experiments, 1000 nM of Ariflo (trade mark) (A) (also known as cilomilast) or 9-cyclopentyl-5,6-dihydro-7-ethyl-3-(2-thienyl)-9H-pyrazolo[3,4-c]-1,2,4-triazolo[4,3-α]pyridine and 9-cyclopentyl-5,6-dihydro-7-ethyl-3-(tert-butyl)-9H-pyrazolo[3,4-c]-1,2,4-triazolo[4,3-c]pyridine (C) were added to the assay and a concentration response curve was then generated for formoterol (F) or salmeterol (S).

Where [1] appears, read: Neutrophil, single agent, fMLP-induced elastase release, isolated human neutrophils.

As for `COc1ccc(CC(C)NCC(O)c2ccc(O)c(NC=O)c2)cc1` (stereo not shown) [F, N-[2-hydroxy-5-(1-hydroxy-2-((2-(4-methoxyphenyl)-1-methylethyl)amino)ethyl)phenyl]formamide], the IC50 (Homo sapiens, Neutrophil) is over 1 µM. Consider `CCc1nn(C2CCCC2)c2c1CCn1c(-c3cccs3)nnc1-2` [C, 9-cyclopentyl-5,6-dihydro-7-ethyl-3-(2-thienyl)-9H-pyrazolo[3,4-c]-1,2,4-triazolo[4,3-α]pyridine and 9-cyclopentyl-5,6-dihydro-7-ethyl-3-(tert-butyl)-9H-pyrazolo[3,4-c]-1,2,4-triazolo[4,3-c]pyridine], for which the IC50 (single agent, fMLP-induced elastase release, isolated human neutrophils) was over 1 µM. Consider `OCc1cc(C(O)CNCCCCCCOCCCCc2ccccc2)ccc1O` (stereo not shown) [S, salmeterol], for which the IC50 under setting [1] was over 1 µM. On the same count and under the same terms, next, `COc1ccc([C@]2(C#N)CC[C@@H](C(=O)O)CC2)cc1OC1CCCC1` [A, cilomilast]: over 1 µM.
